The text below walks through data of patent US9458202B2, “Peptidomimetic macrocycles with improved properties” (Aileron Therapeutics, Inc., priority 2008, dated 2016).

Where a SMILES comes first, the peptide text is derived from it. Bridges are numbered along the chain shown (N, C = ends). [ ]: non-standard residue; d: D form. The star is where a group is joined. S5 = C=CCCC[C@](C)(N)C(=O)O; Nle = CCCC[C@H](N)C(=O)O; Aib = CC(C)(N)C(=O)O; Propionyl = CCC(=O)*

One data set can be described thus: Figure 5. From the text:
Table printed on a drawing sheet, Figure 5
The patent's description of the figure: FIG. 5 illustrates the PK profile in rat and monkey for a peptidomimetic macrocycle of the invention.
First reader's note: The first row combines the substance name (SP2) with the conditions dose, route and species in one cell.

The nature of the next data set: Figure 2. Also noted: AUCall: concentration or dose not given beside the values. The conditions noted are these: for C0 / half-life / MRT: Sprague-Dawley, rat, plasma, iv; for MRT: read-out: MRTinf_obs. How it is done:
Table printed on a drawing sheet, Figure 2
Footnotes: 2 mg/mL iv bolus in Sprague-Dawley rats (10 mg/kg) / * 0.6 mg/mL iv bolus in Sprague-Dawley rats (3 mg/kg)
The patent's description of the figure: FIG. 2 lists the in vivo half-lives of peptidomimetic macrocycles of the invention. Half-lives were measured in Sprague Dawley rats after one intravenous bolus injection at 0.6 mg/mL or 2 mg/mL of each unlabeled peptidomimetic macrocycle at a 3 mg/kg or 10 mg/kg dose, respectively. Three animals were used per compound and concentrations were determined by mass-spectrometric analysis of blood levels (plasma).
First reader's note: An asterisk before the peptide name marks dosing at 3 mg/kg (0.6 mg/mL) instead of 10 mg/kg (2 mg/mL).

With `CC[C@H](C)[C@H](NC(C)=O)C(=O)N[C@@H](Cc1c[nH]c2ccccc12)C(=O)N[C@H](C(=O)N[C@@H](C)C(=O)N[C@@H](CCC(N)=O)C(=O)N[C@@H](CCC(=O)O)C(=O)N[C@@H](CC(C)C)C(=O)N[C@@H](CCCNC(=N)N)C(=O)N[C@@]1(C)CCCC=CCCC[C@@](C)(C(=O)N[C@@H](Cc2ccccc2)C(=O)N[C@@H](CC(N)=O)C(=O)N[C@@H](C)C(=O)N[C@@H](Cc2ccc(O)cc2)C(=O)N[C@@H](Cc2ccc(O)cc2)C(=O)N[C@@H](C)C(=O)N[C@@H](CCCNC(=N)N)C(=O)N[C@@H](CCCNC(=N)N)C(N)=O)NC(=O)[C@H](CC(=O)O)NC(=O)CNC(=O)[C@H]([C@@H](C)CC)NC1=O)[C@@H](C)CC` (single isomer, unassigned) [SP2 1 mg/kg IV monkey], in the data set “Figure 5”, the “AUC all” value was 27.275 µg·h/mL, the “Cmax” value stood at 19.049 µg/mL, the “MRTinf” value was determined as 1.8 h and the “T ½” value amounted to 2.2 h.

Take `CC[C@H](C)[C@H](NC(C)=O)C(=O)N[C@@H](Cc1c[nH]c2ccccc12)C(=O)N[C@H](C(=O)N[C@@H](C)C(=O)N[C@@H](CCC(N)=O)C(=O)N[C@@H](CCC(=O)O)C(=O)N[C@@H](CC(C)C)C(=O)N[C@@H](CCCNC(=N)N)C(=O)N[C@@]1(C)CCCC=CCCC[C@@](C)(C(=O)N[C@@H](Cc2ccccc2)C(=O)N[C@@H](CC(N)=O)C(=O)N[C@@H](C)C(=O)N[C@@H](Cc2ccc(O)cc2)C(=O)N[C@@H](Cc2ccc(O)cc2)C(=O)N[C@@H](C)C(=O)N[C@@H](CCCNC(=N)N)C(=O)N[C@@H](CCCNC(=N)N)C(N)=O)NC(=O)[C@H](CC(=O)O)NC(=O)CNC(=O)[C@H]([C@@H](C)CC)NC1=O)[C@@H](C)CC` (single isomer, unassigned) [SP2 3 mg/kg IV monkey]: in “Figure 5”, the “AUC all” value came out at 110.669 µg·h/mL, the “Cmax” value turned out to be 51.54 µg/mL, the “MRTinf” value amounted to 1.9 h and the “T ½” value amounted to 2 h.

Consider `CC[C@H](C)[C@H](NC(C)=O)C(=O)N[C@@H](Cc1c[nH]c2ccccc12)C(=O)N[C@H](C(=O)N[C@@H](C)C(=O)N[C@@H](CCC(N)=O)C(=O)N[C@@H](CCC(=O)O)C(=O)N[C@@H](CC(C)C)C(=O)N[C@@H](CCCNC(=N)N)C(=O)N[C@@]1(C)CCCC=CCCC[C@@](C)(C(=O)N[C@@H](Cc2ccccc2)C(=O)N[C@@H](CC(N)=O)C(=O)N[C@@H](C)C(=O)N[C@@H](Cc2ccc(O)cc2)C(=O)N[C@@H](Cc2ccc(O)cc2)C(=O)N[C@@H](C)C(=O)N[C@@H](CCCNC(=N)N)C(=O)N[C@@H](CCCNC(=N)N)C(N)=O)NC(=O)[C@H](CC(=O)O)NC(=O)CNC(=O)[C@H]([C@@H](C)CC)NC1=O)[C@@H](C)CC` (single isomer, unassigned) [SP2 10 mg/kg IV monkey], for which, in “Figure 5”, the “AUC all” value came to 427.932 µg·h/mL, the peak concentration (Cmax) is 180.01 µg/mL, the “MRTinf” value came out at 2.2 h and the “T ½” value turned out to be 1.9 h.

Regarding `CC[C@H](C)[C@H](NC(C)=O)C(=O)N[C@@H](Cc1c[nH]c2ccccc12)C(=O)N[C@H](C(=O)N[C@@H](C)C(=O)N[C@@H](CCC(N)=O)C(=O)N[C@@H](CCC(=O)O)C(=O)N[C@@H](CC(C)C)C(=O)N[C@@H](CCCNC(=N)N)C(=O)N[C@@]1(C)CCCC=CCCC[C@@](C)(C(=O)N[C@@H](Cc2ccccc2)C(=O)N[C@@H](CC(N)=O)C(=O)N[C@@H](C)C(=O)N[C@@H](Cc2ccc(O)cc2)C(=O)N[C@@H](Cc2ccc(O)cc2)C(=O)N[C@@H](C)C(=O)N[C@@H](CCCNC(=N)N)C(=O)N[C@@H](CCCNC(=N)N)C(N)=O)NC(=O)[C@H](CC(=O)O)NC(=O)CNC(=O)[C@H]([C@@H](C)CC)NC1=O)[C@@H](C)CC` (single isomer, unassigned) [SP2], in “Figure 2”, the “AUCall” value was 170.685 µg·h/mL, the “Cl_obs” value is 1.36 mL/min/kg, the C0 stood at 70.3 µg/mL and the half-life was 5.7 h. Besides, the MRT in the data set “Figure 2” came to 3.1 h.

As for `CCCC[C@H](NC(=O)[C@]1(C)CCCC=CCCC[C@](C)(NC(=O)[C@H](C)NC(=O)[C@H](CC(C)C)NC(=O)[C@]2(C)CCCC=CCCCCC(=O)N[C@@H]([C@@H](C)CC)C(=O)N[C@@H](C)C(=O)N[C@@H](CCCNC(=N)N)C(=O)N2)C(=O)N[C@@H](C(C)C)C(=O)NCC(=O)N[C@@H](CC(=O)O)C(=O)N1)C(=O)N[C@@H](CC(=O)O)C(=O)N[C@@H](CCCNC(=N)N)C(=O)N[C@@H](CO)C(=O)N[C@H](C(N)=O)[C@@H](C)CC` [*SP12], in the data set “Figure 2”, the “AUCall” value is 69.035 µg·h/mL, the “Cl_obs” value was found to be 0.503 mL/min/kg, the C0 is 6.4 µg/mL and the half-life is 5.9 h. Further, the MRT in “Figure 2” came to 9.2 h.

In the case of `CC[C@H](C)[C@H](NC(C)=O)C(=O)N[C@@H](Cc1c[nH]c2ccccc12)C(=O)N[C@H](C(=O)N[C@@H](C)C(=O)N[C@@H](CCC(N)=O)C(=O)N[C@@H](CCC(N)=O)C(=O)N[C@@H](CC(C)C)C(=O)N[C@@H](CCCNC(=N)N)C(=O)N[C@@]1(C)CCCC=CCCC[C@@](C)(C(=O)N[C@@H](Cc2ccccc2)C(=O)N[C@@H](CC(N)=O)C(=O)N[C@@H](C)C(=O)N[C@@H](Cc2ccc(O)cc2)C(=O)N[C@@H](Cc2ccc(O)cc2)C(=O)N[C@@H](C)C(=O)N[C@@H](CCCNC(=N)N)C(=O)N[C@@H](CCCNC(=N)N)C(N)=O)NC(=O)[C@H](CC(=O)O)NC(=O)CNC(=O)[C@H]([C@@H](C)CC)NC1=O)[C@@H](C)CC` [SP3], in the data set “Figure 2”, the “AUCall” value worked out at 156.183 µg·h/mL, the “Cl_obs” value came to 1.1 mL/min/kg, the C0 came to 186 µg/mL and the half-life was 11.1 h. In addition, in the data set “Figure 2”, the MRT was 4.3 h.

With `CCCC[C@H](NC(=O)[C@]1(C)CCCC=CCCC[C@](C)(NC(=O)[C@H](C)NC(=O)[C@H](CC(C)C)NC(=O)[C@H](Cc2c[nH]cn2)NC(=O)[C@H](CCCNC(=N)N)NC(=O)[C@H](C)NC(=O)[C@@H](NC(=O)[C@H](CC(N)=O)NC(=O)[C@H](CCCNC(=N)N)NC(=O)CC)[C@@H](C)CC)C(=O)N[C@@H](C(C)C)C(=O)NC(C)(C)C(=O)N[C@@H](CC(=O)O)C(=O)N1)C(=O)N[C@@H](CC(=O)O)C(=O)N[C@@H](CCCNC(=N)N)C(=O)N[C@@H](CO)C(=O)N[C@H](C(N)=O)[C@@H](C)CC` [SP5] (Propionyl-RNIARHLA[S5]V[Aib]D[S5][Nle]DRSI-NH2; staple 9-13), in the data set “Figure 2”, the “AUCall” value was 127.629 µg·h/mL, the “Cl_obs” value worked out at 1.52 mL/min/kg, the C0 was 271 µg/mL and the half-life is 2.4 h. Also, the MRT in the data set “Figure 2” is 0.6 h.

Turning to `CC[C@H](C)[C@H](NC(=O)[C@H](CO)NC(=O)[C@H](CCCNC(=N)N)NC(=O)[C@H](C)NC(=O)[C@H](C)NC(=O)[C@]1(C)CCCC=CCCC[C@](C)(NC(=O)[C@H](C)NC(=O)[C@H](CC(C)C)NC(=O)[C@H](Cc2c[nH]cn2)NC(=O)[C@H](CCCNC(=N)N)NC(=O)[C@H](C)NC(=O)[C@@H](NC(=O)[C@H](CC(N)=O)NC(=O)[C@H](CCCNC(=N)N)NC(=O)[C@@H](NC(=O)[C@@H](NC(=O)[C@H](CC(=O)O)NC(C)=O)[C@@H](C)CC)[C@@H](C)CC)[C@@H](C)CC)C(=O)N[C@@H](C(C)C)C(=O)NC(C)(C)C(=O)N[C@@H](CC(=O)O)C(=O)N1)C(N)=O` [SP7] (Ac-DIIRNIARHLA[S5]V[Aib]D[S5]AARSI-NH2; staple 12-16), in “Figure 2”, the “AUCall” value came out at 402.899 µg·h/mL, the “Cl_obs” value was 0.398 mL/min/kg, the C0 was determined as 158 µg/mL and the half-life was 3.9 h. Also, the MRT in the data set “Figure 2” was found to be 3.1 h.

For the molecule `CCC(=O)N[C@@H](CCCNC(=N)N)C(=O)N[C@@H](CC(N)=O)C(=O)N[C@H](C(=O)N[C@@H](C)C(=O)N[C@@H](CCCNC(=N)N)C(=O)N[C@@H](Cc1c[nH]cn1)C(=O)N[C@@H](CC(C)C)C(=O)N[C@@H](C)C(=O)N[C@@]1(C)CCCC=CCCC[C@@](C)(C(=O)N[C@@H](Cc2ccccc2)C(=O)N[C@@H](C)C(=O)N[C@@H](CCCNC(=N)N)C(=O)N[C@@H](CO)C(=O)N[C@H](C(N)=O)[C@@H](C)CC)NC(=O)[C@H](CC(=O)O)NC(=O)C(C)(C)NC(=O)[C@H](C(C)C)NC1=O)[C@@H](C)CC` [SP8] (Propionyl-RNIARHLA[S5]V[Aib]D[S5]FARSI-NH2; staple 9-13), in “Figure 2”, the “AUCall” value came out at 73.751 µg·h/mL, the “Cl_obs” value was 1.997 mL/min/kg, the C0 came out at 148 µg/mL and the half-life is 19.9 h. Moreover, in “Figure 2”, the MRT turned out to be 2.3 h.

`CCCC[C@H](NC(=O)[C@]1(C)CCCC=CCCC[C@](C)(NC(=O)[C@H](C)NC(=O)[C@H](CC(C)C)NC(=O)[C@H](Cc2c[nH]cn2)NC(=O)[C@H](CCCNC(=N)N)NC(=O)[C@H](C)NC(=O)[C@@H](NC(=O)[C@H](CC(N)=O)NC(=O)[C@H](CCCNC(=N)N)NC(=O)CC)[C@@H](C)CC)C(=O)N[C@@H](C(C)C)C(=O)NCC(=O)N[C@@H](CC(=O)O)C(=O)N1)C(=O)NC(C)(C)C(=O)N[C@@H](CCCNC(=N)N)C(=O)N[C@@H](CO)C(=O)N[C@H](C(N)=O)[C@@H](C)CC` [SP10] (Propionyl-RNIARHLA[S5]VGD[S5][Nle][Aib]RSI-NH2; staple 9-13): in the data set “Figure 2”, the “AUCall” value was 35.591 µg·h/mL, the “Cl_obs” value worked out at 3.605 mL/min/kg, the C0 came out at 51.7 µg/mL and the half-life is 21.8 h. Moreover, the MRT in the data set “Figure 2” came to 3 h.

The Cmax is the maximum level reached in the sampled fluid or tissue. One may read the half-life as how long it takes for the measured level to halve.
